Results on four compounds are retold here after ChEMBL document CHEMBL4325863, “Investigating alkyl nitrates as nitric oxide releasing precursors of multitarget acetylcholinesterase-monoamine oxidase B inhibitors” (Eur J Med Chem, 2019).

The test system of series [1] is SH-SY5Y. Kind of series: Neuroprotection against rotenone/H2O2-induced cell death in human SH-SY5Y cells assessed as increase in cell viability at 0.1 to […] preincubated for 24 hrs followed by rotenone/H2O2 addition measured after 24 hrs by MTT assay. It counts as functional, cell-based. (Tetrazolium dyes change colour on reduction, which living cells bring about.)

The target of series [2] is T1, Amine oxidase [flavin-containing] A (Homo sapiens, UniProt P21397).
T1 sequence (P21397 whole entry): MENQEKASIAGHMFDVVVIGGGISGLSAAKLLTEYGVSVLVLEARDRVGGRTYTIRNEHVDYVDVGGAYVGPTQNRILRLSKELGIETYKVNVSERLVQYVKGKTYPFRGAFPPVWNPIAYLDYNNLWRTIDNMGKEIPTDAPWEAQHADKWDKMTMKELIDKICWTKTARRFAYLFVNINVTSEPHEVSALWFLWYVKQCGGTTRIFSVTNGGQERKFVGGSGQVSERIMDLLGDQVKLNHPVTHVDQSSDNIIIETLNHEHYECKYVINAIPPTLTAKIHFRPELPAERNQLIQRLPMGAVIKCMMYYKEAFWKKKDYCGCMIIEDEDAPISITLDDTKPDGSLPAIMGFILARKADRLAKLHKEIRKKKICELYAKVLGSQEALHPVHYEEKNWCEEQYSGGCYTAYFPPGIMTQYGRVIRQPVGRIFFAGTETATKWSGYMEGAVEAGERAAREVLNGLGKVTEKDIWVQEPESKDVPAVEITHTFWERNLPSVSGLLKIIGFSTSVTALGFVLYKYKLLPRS
As to the kind of experiment: Inhibition of recombinant human MAO-A expressed in baculovirus infected insect cell microsomes at 10 uM using kynuramine as substrate measured after 30 mins by fluorescence based assay relative to control. Conditions: 0.5 h.

Series [3] concerns the target T2, Amine oxidase [flavin-containing] B (Homo sapiens, UniProt P27338).
T2 sequence (P27338 whole entry): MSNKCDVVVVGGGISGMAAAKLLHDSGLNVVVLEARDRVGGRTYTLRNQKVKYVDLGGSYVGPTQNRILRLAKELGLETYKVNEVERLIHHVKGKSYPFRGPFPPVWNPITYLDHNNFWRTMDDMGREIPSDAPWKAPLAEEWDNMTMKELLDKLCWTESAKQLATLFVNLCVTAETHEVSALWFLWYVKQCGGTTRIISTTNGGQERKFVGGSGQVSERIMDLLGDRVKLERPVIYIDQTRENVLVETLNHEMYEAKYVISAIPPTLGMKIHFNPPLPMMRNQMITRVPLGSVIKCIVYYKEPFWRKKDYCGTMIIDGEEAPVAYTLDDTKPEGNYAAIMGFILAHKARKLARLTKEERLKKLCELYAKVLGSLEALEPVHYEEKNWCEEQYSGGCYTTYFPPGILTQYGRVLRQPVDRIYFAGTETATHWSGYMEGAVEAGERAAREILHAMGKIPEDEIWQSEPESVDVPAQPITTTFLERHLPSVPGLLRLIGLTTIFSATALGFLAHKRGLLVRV
As to the kind of experiment: Inhibition of recombinant human MAO-B expressed in baculovirus infected insect cell microsomes using kynuramine as substrate measured after 30 mins by fluorescence based assay.

Series [4] can be described thus: Drug metabolism in PBS buffer assessed as nitric oxide release at 150 uM in presence of cysteine by Griess reagent based UV-Visible spectrophotometric method. Conditions: TDE = time-dependent effect. In general terms: Griess reagent forms a coloured azo dye with nitrite.
The target of series [5] is Acetylcholinesterase (Homo sapiens, UniProt P22303). Kind of series: Inhibition of human recombinant AChE using acetylthiocholine iodide as substrate by Ellman's method. (In general: DTNB colorimetry detects thiols as they appear.)
The target of series [6] is T3, Cholinesterase (Homo sapiens, UniProt P06276). As to the kind of experiment: Inhibition of human serum BuChE at 10 uM using butyrylthiocholine iodide as substrate by Ellman's method relative to control.
A short description of series [7]: Drug metabolism in pH 7.4 PBS buffer assessed as 7-{[1-(3-Hydroxypropyl)piperidin-4-yl]methoxy}-3,4-dimethyl-2H-chromen-2-one formation at 100 uM after 24 hrs by RP-HPLC method.
The nature of series [8]: Half life in human serum at 100 uM by RP-HPLC method. It counts as ADME, cell-free.
Series [9] is described as follows: Drug metabolism in pH 7.4 PBS buffer assessed as 7-{[1-(3-Hydroxypropyl)piperidin-4-yl]methoxy}-3,4-dimethyl-2H-chromen-2-one formation at 100 uM up to 30 hrs in presence of cysteine by RP-HPLC method.
Series [10] is described as follows: Drug metabolism in pH 7.4 PBS buffer assessed as 7-{[1-(3-Hydroxypropyl)piperidin-4-yl]methoxy}-3,4-dimethyl-2H-chromen-2-one formation at 100 uM up to 30 hrs in presence of glutathione by RP-HPLC method.
Series [11] deals with SH-SY5Y. Kind of series: Neuroprotection against rotenone/H2O2-induced cell death in human SH-SY5Y cells assessed as increase in cell viability preincubated for 24 hrs followed by rotenone/H2O2 addition measured after 24 hrs by MTT assay. Type of series: functional, cell-based.
The test system of series [12] is SH-SY5Y. As to the kind of experiment: Cytotoxicity against human SH-SY5Y cells assessed as reduction in cell viability after 24 hrs by MTT assay. Type of series: cell-based.
The nature of series [13]: Apparent permeability from apical to basolateral side in MDCK2-MDR1 cells by UV-Visible spectrophotometric method. It counts as ADME, cell-based, Canis lupus familiaris. Conditions: dog, MDCK-MDR1.
Series [14] in a line: Apparent permeability from basolateral to apical side in MDCK2-MDR1 cells by UV-Visible spectrophotometric method. Conditions: dog, MDCK-MDR1. Type of series: ADME, cell-based, Canis lupus familiaris.
Series [15] can be described thus: Efflux ratio of apparent permeability in MDCK2-MDR1 cells by UV-Visible spectrophotometric method. It counts as ADME, cell-based, Canis lupus familiaris. Conditions: dog, MDCK-MDR1.
Series [16] addresses T2, Amine oxidase [flavin-containing] B. Kind of series: Inhibition of recombinant human MAO-B expressed in baculovirus infected insect cell microsomes at 10 uM using kynuramine as substrate measured after 30 mins by fluorescence based assay relative to control. Conditions: 0.5 h.
For series [17] the target is unchanged. Kind of series: Inhibition of recombinant human MAO-B expressed in baculovirus infected insect cell microsomes at 10 uM using kynuramine as substrate measured after 30 mins by spectrophotometric assay relative to control. Conditions: 0.5 h.
The target of series [18] is Acetylcholinesterase (Electrophorus electricus) (UniProt O42275). As to the kind of experiment: Inhibition of electric eel AChE at 10 uM using acetylthiocholine iodide as substrate by Ellman's method relative to control.
In series [19] the target is Cholinesterase (Equus caballus) (UniProt P81908). As to the kind of experiment: Inhibition of equine serum BuChE at 10 uM using butyrylthiocholine iodide as substrate by Ellman's method relative to control.
Series [20] deals with T1, Amine oxidase [flavin-containing] A. Kind of series: Inhibition of recombinant human MAO-A expressed in baculovirus infected insect cell microsomes using kynuramine as substrate measured after 30 mins by fluorescence based assay.
The target in series [21] is T3, Cholinesterase. Kind of series: Inhibition of human serum BuChE using butyrylthiocholine iodide as substrate by Ellman's method.
Series [22] in a line: Drug metabolism in pH 7.4 PBS buffer assessed as 7-({1-[3-(3-Hydroxypropoxy)benzyl]piperidin-4-yl}methoxy)-3,4-dimethyl-2H-chromen-2-one formation at 100 uM up to 30 hrs by RP-HPLC method.
Series [23] can be described thus: Drug metabolism in pH 7.4 PBS buffer assessed as 7-({1-[3-(3-Hydroxypropoxy)benzyl]piperidin-4-yl}methoxy)-3,4-dimethyl-2H-chromen-2-one formation at 100 uM up to 30 hrs in presence of cysteine by RP-HPLC method.
Series [24] can be described thus: Drug metabolism in pH 7.4 PBS buffer assessed as 7-({1-[3-(3-Hydroxypropoxy)benzyl]piperidin-4-yl}methoxy)-3,4-dimethyl-2H-chromen-2-one formation at 100 uM up to 30 hrs in presence of glutathione by RP-HPLC method.
Series [25] in a line: Drug metabolism in pH 7.4 PBS buffer at 100 uM after 24 hrs in presence of cysteine by RP-HPLC method.
The nature of series [26]: Drug metabolism in pH 7.4 PBS buffer at 100 uM after 24 hrs in presence of glutathione by RP-HPLC method.
A short description of series [27]: Drug metabolism in pH 7.4 PBS buffer at 100 uM after 24 hrs by RP-HPLC method.

A word on the inhibition: it is how much of the control response was suppressed. For orientation: IC50 means the concentration that inhibits the measured activity by half. By half-life is commonly meant the time needed for the level to fall by half in the phase considered. Read a low half-life as rapid decline. In general, Papp A→B refers to the apparent permeability from the apical to the basolateral side of a cell layer. What is called Papp B→A is how fast a substance crosses the layer from the basolateral side. For orientation: efflux ratio means a quotient of directional permeabilities that is used to spot active efflux.

Structures are written as SMILES. Calls of active or inactive are those of the source. Where only a bound is given, the exact number is not on record here.

T3 sequence (P06276 whole entry): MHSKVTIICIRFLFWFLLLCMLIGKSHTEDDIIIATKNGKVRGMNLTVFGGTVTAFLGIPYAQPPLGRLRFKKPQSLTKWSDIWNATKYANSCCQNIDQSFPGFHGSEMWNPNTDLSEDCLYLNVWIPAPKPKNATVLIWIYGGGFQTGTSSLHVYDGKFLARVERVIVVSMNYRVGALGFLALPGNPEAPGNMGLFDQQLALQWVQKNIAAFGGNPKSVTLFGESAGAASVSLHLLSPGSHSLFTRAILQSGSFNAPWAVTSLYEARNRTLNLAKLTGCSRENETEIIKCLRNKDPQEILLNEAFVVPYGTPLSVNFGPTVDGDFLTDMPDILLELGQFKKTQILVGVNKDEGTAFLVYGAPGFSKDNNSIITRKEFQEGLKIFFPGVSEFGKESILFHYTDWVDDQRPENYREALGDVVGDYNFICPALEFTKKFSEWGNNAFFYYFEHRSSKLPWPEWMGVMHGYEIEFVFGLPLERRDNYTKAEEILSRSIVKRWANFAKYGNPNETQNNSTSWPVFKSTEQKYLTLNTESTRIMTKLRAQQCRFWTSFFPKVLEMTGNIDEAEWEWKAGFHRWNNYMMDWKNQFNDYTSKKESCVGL
Chain of Acetylcholinesterase (P22303 whole entry): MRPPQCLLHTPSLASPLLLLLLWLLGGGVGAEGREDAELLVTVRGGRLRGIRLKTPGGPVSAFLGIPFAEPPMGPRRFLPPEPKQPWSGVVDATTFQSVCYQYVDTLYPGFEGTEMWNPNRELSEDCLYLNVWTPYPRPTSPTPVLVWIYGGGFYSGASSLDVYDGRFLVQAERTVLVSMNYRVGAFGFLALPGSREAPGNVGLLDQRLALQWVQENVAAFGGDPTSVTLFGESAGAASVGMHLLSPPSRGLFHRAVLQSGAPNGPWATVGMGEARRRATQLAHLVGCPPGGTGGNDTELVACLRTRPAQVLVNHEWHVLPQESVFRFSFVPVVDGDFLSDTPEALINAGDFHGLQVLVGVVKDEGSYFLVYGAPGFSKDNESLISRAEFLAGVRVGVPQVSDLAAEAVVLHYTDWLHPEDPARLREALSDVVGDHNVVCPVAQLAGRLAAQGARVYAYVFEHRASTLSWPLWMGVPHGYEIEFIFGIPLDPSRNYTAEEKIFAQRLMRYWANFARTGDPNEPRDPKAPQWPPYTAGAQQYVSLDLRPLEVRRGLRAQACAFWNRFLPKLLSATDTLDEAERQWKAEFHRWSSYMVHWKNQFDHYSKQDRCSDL
Chain of Acetylcholinesterase (Electrophorus electricus) (O42275 24-633 limits assumed): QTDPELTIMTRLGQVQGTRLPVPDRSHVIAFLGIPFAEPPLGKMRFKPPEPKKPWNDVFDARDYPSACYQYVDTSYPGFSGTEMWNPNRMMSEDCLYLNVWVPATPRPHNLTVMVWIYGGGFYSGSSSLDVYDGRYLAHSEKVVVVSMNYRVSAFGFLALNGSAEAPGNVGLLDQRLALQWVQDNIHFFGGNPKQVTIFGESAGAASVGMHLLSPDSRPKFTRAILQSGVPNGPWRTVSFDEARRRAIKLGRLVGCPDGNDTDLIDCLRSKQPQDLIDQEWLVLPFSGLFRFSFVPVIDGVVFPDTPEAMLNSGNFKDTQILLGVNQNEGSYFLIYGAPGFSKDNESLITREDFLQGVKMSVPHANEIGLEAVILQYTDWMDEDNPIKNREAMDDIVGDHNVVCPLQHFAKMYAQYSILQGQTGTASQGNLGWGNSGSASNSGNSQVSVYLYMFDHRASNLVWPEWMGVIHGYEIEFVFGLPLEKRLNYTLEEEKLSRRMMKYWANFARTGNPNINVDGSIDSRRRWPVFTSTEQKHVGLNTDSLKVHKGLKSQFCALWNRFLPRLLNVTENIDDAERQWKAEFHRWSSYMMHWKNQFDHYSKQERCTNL
Chain of Cholinesterase (Equus caballus) (P81908 whole entry): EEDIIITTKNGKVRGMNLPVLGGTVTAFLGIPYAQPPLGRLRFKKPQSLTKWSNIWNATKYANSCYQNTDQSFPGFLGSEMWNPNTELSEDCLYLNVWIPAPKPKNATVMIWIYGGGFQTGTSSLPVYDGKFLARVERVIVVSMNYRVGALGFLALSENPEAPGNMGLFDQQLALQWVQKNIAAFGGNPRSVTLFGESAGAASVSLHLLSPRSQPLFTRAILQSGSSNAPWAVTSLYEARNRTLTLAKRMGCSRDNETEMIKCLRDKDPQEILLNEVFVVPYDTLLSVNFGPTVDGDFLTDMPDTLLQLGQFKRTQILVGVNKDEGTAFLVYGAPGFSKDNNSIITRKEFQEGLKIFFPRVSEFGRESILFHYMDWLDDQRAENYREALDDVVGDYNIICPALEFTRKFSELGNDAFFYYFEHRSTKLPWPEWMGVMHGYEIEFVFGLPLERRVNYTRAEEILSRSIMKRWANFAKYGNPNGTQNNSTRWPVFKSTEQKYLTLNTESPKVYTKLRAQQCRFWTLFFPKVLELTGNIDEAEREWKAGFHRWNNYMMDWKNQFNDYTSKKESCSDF

`COc1cc2c(cc1OC)C(=O)C(CC1CCN(Cc3ccccc3)CC1)C2` (configuration not stated): in [1], the result was Active.
For the compound `Cc1c(C)c2ccc(OCC3CCN(CCCO[N+](=O)[O-])CC3)cc2oc1=O`, in series [2], the inhibition at 10 µM was 36%. The IC50 in series [3] amounted to 250 nM; in series [5], 860 nM. For the same compound, the Drug metabolism entry in [4] was “Tde”; in [7], “Metabolite detected”; in series [9] it was “Metabolite not detected”; in series [10], “Metabolite not detected”. Moreover, the inhibition in series [6] is under 5%. In [8], the half-life at 100 µM is 0.958 days. Besides, the Activity result in series [11] was “Dose-dependent effect”; in series [12], over 100 µM. The Papp A→B in series [13] turned out to be 4.96 ×10⁻⁶ cm/s. Besides, in series [14], the Papp B→A stood at 15.7 ×10⁻⁶ cm/s. Moreover, the efflux ratio in series [15] is 3.17.
With `O=c1ccc2ccc(OCC3CCN(CCCO)CC3)cc2o1`, the inhibition at 10 µM in series [2] was found to be 26%; in series [16], 48%; in series [17], 39%. The inhibition in series [18] was found to be 38%; in series [19], 26%.
`Cc1c(C)c2ccc(OCC3CCN(Cc4cccc(OCCCO[N+](=O)[O-])c4)CC3)cc2oc1=O`: the half-inhibitory concentration (IC50) is 1200 nM in [20], 550 nM in series [3], 480 nM in series [5] and 800 nM in series [21]. Also, the Drug metabolism entry was “Tde” in series [4]; “Metabolite detected” in [22]; “Metabolite not detected” in [23]; “Metabolite not detected” in series [24]; over 50% in [25]; over 50% in [26]. This compound also returned a Drug metabolism in [27] of over 50%. For the same compound, the half-life at 100 µM in series [8] was 19.1 days.
